The target of assay [1] is Pim1 kinase (Homo sapiens, UniProt P11309). The assay can be described thus: Pim1 ATP depletion assay.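 Also: Luciferase-luciferin luminescence readout of residual ATP after PIM1 transfers phosphate to a peptide substrate, 40 µM ATP added, reaction run to roughly half ATP consumption.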 Format: biochemical. To be noted: Pim1 ATP depletion assay; read-out: IC50 (μM) PIM1.
Assay [2] has as its target Pim2 kinase (Homo sapiens, UniProt Q9P1W9). The assay can be described thus: Pim2 ATP depletion assay.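 Also: Luciferase-based luminescent readout of ATP remaining after PIM2 phosphorylates a BAD peptide, final 5 nM enzyme, 4 µM ATP, 10 µM peptide, 2.5% DMSO, run to roughly half ATP consumption.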 In kind it is biochemical. The note with it: read-out: IC50 (μM) PIM2.
Assay [3] deals with Pim3 kinase (Homo sapiens, UniProt Q86V86). As to the kind of experiment: Pim3 ATP depletion assay. The note with it: read-out: IC50 (μM) PIM3. In kind it is biochemical.
Assay [4] concerns the target T1, human full length PKCE enzyme (Homo sapiens, UniProt Q02156).
T1 construct: human full length PKCE enzyme purchased from InVitrogen; purchased InVitrogen
T1 sequence (Q02156 1-737): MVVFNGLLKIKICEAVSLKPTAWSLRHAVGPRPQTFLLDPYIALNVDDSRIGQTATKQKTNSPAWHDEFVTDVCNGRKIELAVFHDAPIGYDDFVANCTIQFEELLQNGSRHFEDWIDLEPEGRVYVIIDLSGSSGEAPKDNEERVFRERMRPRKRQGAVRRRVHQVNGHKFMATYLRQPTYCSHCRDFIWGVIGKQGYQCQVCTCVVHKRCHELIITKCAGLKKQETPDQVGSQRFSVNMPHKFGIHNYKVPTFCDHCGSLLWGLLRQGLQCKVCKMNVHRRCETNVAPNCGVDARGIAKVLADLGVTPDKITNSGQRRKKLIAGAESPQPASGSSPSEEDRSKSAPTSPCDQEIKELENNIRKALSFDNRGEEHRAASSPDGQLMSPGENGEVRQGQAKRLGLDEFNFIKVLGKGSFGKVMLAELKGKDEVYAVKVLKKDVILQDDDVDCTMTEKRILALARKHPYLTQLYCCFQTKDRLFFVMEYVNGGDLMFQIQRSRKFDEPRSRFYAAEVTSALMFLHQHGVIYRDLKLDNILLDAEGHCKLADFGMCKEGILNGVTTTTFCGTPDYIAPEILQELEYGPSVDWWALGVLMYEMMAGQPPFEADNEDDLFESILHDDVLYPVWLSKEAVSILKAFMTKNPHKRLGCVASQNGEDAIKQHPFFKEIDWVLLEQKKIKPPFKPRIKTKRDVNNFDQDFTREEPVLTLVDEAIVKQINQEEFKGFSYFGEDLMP
The assay can be described thus: In vitro PKCE assay. In kind it is biochemical. The note with it: 10 nM enzyme, 40 uM peptide substrate, 20 uM ATP, KinaseGlo Plus readout; read-out: PKCε IC50. Background: Kinase-Glo measures the ATP left after a reaction by luminescence.

The target in assay [5] is KDR kinase (Homo sapiens, UniProt P35968). The assay can be described thus: KDR AlphaScreen assay. The note with it: KDR IC50 (μM). Background: Alpha assays give light when donor and acceptor beads are brought close together.

pIC50: −log10 of the molar value.

Chain of Pim2 kinase (Q9P1W9 whole entry): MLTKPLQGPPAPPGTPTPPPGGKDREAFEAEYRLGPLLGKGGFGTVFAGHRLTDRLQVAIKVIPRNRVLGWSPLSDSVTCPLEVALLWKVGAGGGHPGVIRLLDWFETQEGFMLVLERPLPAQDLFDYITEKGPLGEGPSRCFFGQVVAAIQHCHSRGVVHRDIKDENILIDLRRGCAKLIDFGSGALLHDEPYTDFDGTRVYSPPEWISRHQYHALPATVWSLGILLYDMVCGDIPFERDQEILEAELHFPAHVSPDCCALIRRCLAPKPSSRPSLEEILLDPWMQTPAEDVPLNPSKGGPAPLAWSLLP
Chain of KDR kinase (P35968 20-1356): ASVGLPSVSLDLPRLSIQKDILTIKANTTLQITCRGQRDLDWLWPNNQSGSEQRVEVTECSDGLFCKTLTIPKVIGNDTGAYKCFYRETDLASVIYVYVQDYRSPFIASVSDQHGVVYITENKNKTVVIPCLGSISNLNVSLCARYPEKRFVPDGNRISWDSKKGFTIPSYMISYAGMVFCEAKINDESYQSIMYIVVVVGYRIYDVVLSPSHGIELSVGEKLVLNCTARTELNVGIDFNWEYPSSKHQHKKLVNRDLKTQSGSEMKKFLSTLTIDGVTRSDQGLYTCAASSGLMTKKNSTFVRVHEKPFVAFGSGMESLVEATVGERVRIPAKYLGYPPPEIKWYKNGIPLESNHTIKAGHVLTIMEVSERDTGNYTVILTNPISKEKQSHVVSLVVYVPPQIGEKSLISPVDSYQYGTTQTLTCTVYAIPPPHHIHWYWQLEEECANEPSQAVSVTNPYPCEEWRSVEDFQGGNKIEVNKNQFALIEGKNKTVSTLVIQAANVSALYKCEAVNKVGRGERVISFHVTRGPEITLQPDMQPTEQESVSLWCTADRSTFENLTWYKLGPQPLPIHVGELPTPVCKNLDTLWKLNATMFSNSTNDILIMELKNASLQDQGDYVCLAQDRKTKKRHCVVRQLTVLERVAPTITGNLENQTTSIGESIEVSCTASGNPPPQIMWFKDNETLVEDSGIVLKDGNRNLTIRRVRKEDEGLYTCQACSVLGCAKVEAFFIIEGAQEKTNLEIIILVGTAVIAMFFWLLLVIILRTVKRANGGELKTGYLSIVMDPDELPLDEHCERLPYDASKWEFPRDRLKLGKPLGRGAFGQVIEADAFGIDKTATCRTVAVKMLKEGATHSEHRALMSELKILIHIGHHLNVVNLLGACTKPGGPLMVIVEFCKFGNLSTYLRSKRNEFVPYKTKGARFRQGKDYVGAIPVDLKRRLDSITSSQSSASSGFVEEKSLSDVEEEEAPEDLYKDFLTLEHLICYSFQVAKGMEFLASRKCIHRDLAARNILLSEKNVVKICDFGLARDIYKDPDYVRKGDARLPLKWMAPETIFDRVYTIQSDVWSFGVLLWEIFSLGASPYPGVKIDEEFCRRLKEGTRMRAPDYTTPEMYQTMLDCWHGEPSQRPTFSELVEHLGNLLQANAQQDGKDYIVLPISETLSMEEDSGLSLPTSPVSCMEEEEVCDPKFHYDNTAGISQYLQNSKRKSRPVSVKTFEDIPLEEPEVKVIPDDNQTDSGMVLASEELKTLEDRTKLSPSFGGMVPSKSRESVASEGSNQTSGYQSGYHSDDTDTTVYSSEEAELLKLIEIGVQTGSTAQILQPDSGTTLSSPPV
Chain of Pim1 kinase (P11309 whole entry): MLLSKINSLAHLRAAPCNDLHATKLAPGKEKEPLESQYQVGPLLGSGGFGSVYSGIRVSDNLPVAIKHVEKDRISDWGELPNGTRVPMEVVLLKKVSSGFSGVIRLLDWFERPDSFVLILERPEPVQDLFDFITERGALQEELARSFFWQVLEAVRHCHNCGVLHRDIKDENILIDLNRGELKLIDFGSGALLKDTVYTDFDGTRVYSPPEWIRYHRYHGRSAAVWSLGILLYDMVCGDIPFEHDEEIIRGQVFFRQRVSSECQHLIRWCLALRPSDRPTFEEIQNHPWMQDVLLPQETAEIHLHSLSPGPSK

As for `Nc1ncc(-c2ccoc2)nc1C(=O)Nc1ccccc1N1CCC(N)CC1` [Example 379, 3-amino-6-furan-3-yl-pyrazine-2-carboxylic acid [2-(4-amino-piperidin-1-yl)-phenyl]-amide], the IC50 (as a rule, the concentration at which inhibition is half-maximal) is under 1 µM in assay [1], 1 to 10 µM in assay [2], under 1 µM in assay [3] and 1 to 10 µM in assay [5]. Also, the pIC50 (as a rule, the negative decadic logarithm of the IC50, by convention in mol/L) in assay [4] was over 6.00.

For `NC(=O)c1cccc(-c2cnc(N)c(C(=O)Nc3ccccc3N3CCC(N)CC3)n2)c1` [Example 380, 3-amino-6-(3-carbamoyl-phenyl)-pyrazine-2-carboxylic acid [2-(4-amino-piperidin-1-yl)-phenyl]-amide], the IC50 in assay [1] is under 1 µM; in assay [2], 1 to 10 µM; in assay [3], under 1 µM; in assay [5], under 1 µM. Moreover, the pIC50 in assay [4] was over 6.00.

As to `COc1ccc(-c2cnc(N)c(C(=O)Nc3ccccc3N3CCC(N)CC3)n2)cc1` [Example 381, 3-amino-6-(4-methoxy-phenyl)-pyrazine-2-carboxylic acid [2-(4-amino-piperidin-1-yl)-phenyl]-amide], the IC50 in assay [1] was under 1 µM; in assay [2], under 1 µM; in assay [3] it was under 1 µM; in assay [5], 1 to 10 µM. The pIC50 in assay [4] was over 6.00.

`Nc1ncc(-c2ccccc2F)nc1C(=O)Nc1ccccc1N1CCNCC1` [Example 383, 3-amino-6-(2-fluoro-phenyl)-pyrazine-2-carboxylic acid (2-piperazin-1-yl-phenyl)-amide]: the IC50 in assay [1] was under 1 µM; in assay [2], 1 to 10 µM; in assay [3], under 1 µM; in assay [5], 1 to 10 µM. For the same compound, the pIC50 in assay [4] was over 6.00.

Regarding `Nc1ncc(-c2ccoc2)nc1C(=O)Nc1ccccc1N1CCNCC1` [Example 384, 3-amino-6-furan-3-yl-pyrazine-2-carboxylic acid (2-piperazin-1-yl-phenyl)-amide], the IC50 was under 1 µM in assay [1], 1 to 10 µM in assay [2], 1 to 10 µM in assay [3] and 1 to 10 µM in assay [5]. Further, the pIC50 in assay [4] is over 6.00.

Take `NC(=O)c1cccc(-c2cnc(N)c(C(=O)Nc3ccccc3N3CCNCC3)n2)c1` [Example 385, 3-amino-6-(3-carbamoyl-phenyl)-pyrazine-2-carboxylic acid (2-piperazin-1-yl-phenyl)-amide]: the IC50 is under 1 µM in assay [1], 1 to 10 µM in assay [2], under 1 µM in assay [3] and 1 to 10 µM in assay [5]. Moreover, the pIC50 in assay [4] was over 6.00.

Consider `COc1ccc(-c2cnc(N)c(C(=O)Nc3ccccc3N3CCNCC3)n2)cc1` [Example 386, 3-amino-6-(4-methoxy-phenyl)-pyrazine-2-carboxylic acid (2-piperazin-1-yl-phenyl)-amide], for which the IC50 in assay [1] is under 1 µM; in assay [2], 1 to 10 µM; in assay [3] it was under 1 µM; in assay [5] it was 1 to 10 µM. In assay [4], the pIC50 is over 6.00.

On to `Nc1ncc(-c2ccccc2Oc2ccccc2)nc1C(=O)Nc1ccccc1N1CCNCC1` [Example 387, 3-amino-6-(2-phenoxy-phenyl)-pyrazine-2-carboxylic acid (2-piperazin-1-yl-phenyl)-amide], for which the IC50 in assay [1] was 1 to 10 µM; in assay [2], over 25 µM; in assay [3] it was 1 to 10 µM; in assay [5] it was 10 to 25 µM. Moreover, in assay [4], the pIC50 is 5.00 to 6.00.

Consider `Cc1cccc(-c2cnc(N)c(C(=O)Nc3ccccc3N3CCNCC3)n2)c1` [Example 388, 3-amino-6-m-tolyl-pyrazine-2-carboxylic acid (2-piper-azin-1-yl-phenyl)-amide], for which the IC50 is under 1 µM in assay [1], 1 to 10 µM in assay [2], under 1 µM in assay [3] and under 1 µM in assay [5]. Also, in assay [4], the pIC50 was over 6.00.

For `COc1ncccc1-c1cnc(N)c(C(=O)Nc2ccccc2N2CCNCC2)n1` [Example 390, 3-amino-6-(2-methoxy-pyridin-3-yl)-pyrazine-2-carboxylic acid (2-piperazin-1-yl-phenyl)-amide], the IC50 was under 1 µM in assay [1], over 25 µM in assay [2], 1 to 10 µM in assay [3] and 1 to 10 µM in assay [5]. For the same compound, the pIC50 in assay [4] is over 6.00.

Turning to `COc1ncc(-c2cnc(N)c(C(=O)Nc3ccccc3N3CCNCC3)n2)cn1` [Example 391, 3-amino-6-(2-methoxy-pyrimidin-5-yl)-pyrazine-2-carboxylic acid (2-piperazin-1-yl-phenyl)-amide], the IC50 is 1 to 10 µM in assay [1], over 25 µM in assay [2], 1 to 10 µM in assay [3] and over 25 µM in assay [5]. For the same compound, the pIC50 in assay [4] is 5.00 to 6.00.

Regarding `Cc1ccc(-c2ccc(N)c(C(=O)Nc3cnccc3N3CCC[C@H](N)C3)n2)c(F)c1` [Example 406, (S)-3-amino-N-(4-(3-aminopiperidin-1-yl)pyridin-3-yl)-6-(2-fluoro-4-methylphenyl)picolinamide], the IC50 was under 1 µM in assay [1], under 1 µM in assay [2], under 1 µM in assay [3] and over 25 µM in assay [5]. In addition, the pIC50 in assay [4] is 5.00 to 6.00.

Turning to `Nc1ncc(-c2ccc(N)c(C(=O)Nc3cnccc3N3CCC[C@H](N)C3)n2)cn1` [Example 411, 3-amino-6-(2-amino-pyrimidin-5-yl)-pyridine-2-carboxylic acid ((S)-3-amino-3,4,5,6-tetrahydro-2H-[1,4′]bipyridinyl-3′-yl)-amide], the IC50 in assay [1] was under 1 µM; in assay [2] it was under 1 µM; in assay [3] it was under 1 µM; in assay [5], over 25 µM. The pIC50 in assay [4] was 4.60 to 5.00.

As to `Nc1ncc(-c2ccccc2)nc1C(=O)Nc1cc(C(=O)c2ccccc2)ccc1N1CCCC(N)C1` (centres unmarked) [Example 435, 3-amino-6-phenyl-pyrazine-2-carboxylic acid [2-(3-amino-piperidin-1-yl)-5-benzoyl-phenyl]-amide], the IC50 in assay [1] is 1 to 10 µM; in assay [2] it was 1 to 10 µM; in assay [3] it was 1 to 10 µM; in assay [5], under 1 µM. Further, the negative-log IC50 (pIC50) in assay [4] was 4.60 to 5.00.

With `Nc1ncc(-c2ccccc2)nc1C(=O)Nc1cc(C(=O)c2ccccc2)ccc1N1CCC(N)CC1` [Example 436, 3-amino-6-phenyl-pyrazine-2-carboxylic acid [2-(4-amino-piperidin-1-yl)-5-benzoyl-phenyl]-amide], the IC50 in assay [1] was 1 to 10 µM; in assay [2], over 25 µM; in assay [3] it was 1 to 10 µM; in assay [5], 1 to 10 µM. Moreover, in assay [4], the pIC50 was 5.00 to 6.00.

Regarding `COc1ccc(N2CCC(N)CC2)c(NC(=O)c2nc(-c3ccccc3)cnc2N)c1` [Example 437, 3-amino-6-phenyl-pyrazine-2-carboxylic acid [2-(4-amino-piperidin-1-yl)-5-methoxy-phenyl]-amide], the IC50 in assay [1] was under 1 µM; in assay [2], under 1 µM; in assay [3] it was under 1 µM; in assay [5], 1 to 10 µM. Further, the pIC50 in assay [4] was over 6.00.

For the compound `Nc1ncc(-c2ccccc2F)nc1C(=O)Nc1cc(C(=O)c2ccccc2)ccc1N1CCNCC1` [Example 438, 3-amino-6-(2-fluoro-phenyl)-pyrazine-2-carboxylic acid (5-benzoyl-2-piperazin-1-yl-phenyl)-amide], the IC50 in assay [1] was 1 to 10 µM; in assay [2], over 25 µM; in assay [3] it was 1 to 10 µM; in assay [5], 1 to 10 µM. The negative logarithm of the IC50 (pIC50) in assay [4] is under 4.60.

Regarding `Nc1ncc(-c2ccccc2F)nc1C(=O)Nc1cc(C(=O)c2ccccc2)ccc1N1CCC(N)CC1` [Example 439, 3-amino-6-(2-fluoro-phenyl)-pyrazine-2-carboxylic acid [2-(4-amino-piperidin-1-yl)-5-benzoyl-phenyl]-amide], the IC50 in assay [1] was 1 to 10 µM; in assay [2], over 25 µM; in assay [3], 1 to 10 µM; in assay [5] it was 1 to 10 µM. For the same compound, the pIC50 in assay [4] was 5.00 to 6.00.

Consider `Cc1cnc(N)c(C(=O)Nc2cc(C(=O)c3ccccc3)ccc2N2CCNCC2)n1` [Example 440, 3-amino-6-methyl-pyrazine-2-carboxylic acid (5-benzoyl-2-piperazin-1-yl-phenyl)-amide], for which the IC50 in assay [1] was over 25 µM; in assay [2] it was over 25 µM; in assay [3], 10 to 25 µM; in assay [5], 1 to 10 µM. Moreover, the pIC50 in assay [4] is under 4.60.

These data come from US20140249135A1, “PIM KINASE INHIBITORS AND METHODS OF THEIR USE” (NOVARTIS AG, priority 2007, published 2014).
